This is an account of results in patent publication US20210122730A1, “GLUCOCORTICOID RECEPTOR MODULATORS” (ORIC Pharmaceuticals, Inc., priority 2017, published 2021).

For this assay, the target named is T1, GR (Homo sapiens, UniProt P04150).
T1 construct: expressed in transfected cells; host or cells: CHO-K1
T1 sequence (P04150 1-777): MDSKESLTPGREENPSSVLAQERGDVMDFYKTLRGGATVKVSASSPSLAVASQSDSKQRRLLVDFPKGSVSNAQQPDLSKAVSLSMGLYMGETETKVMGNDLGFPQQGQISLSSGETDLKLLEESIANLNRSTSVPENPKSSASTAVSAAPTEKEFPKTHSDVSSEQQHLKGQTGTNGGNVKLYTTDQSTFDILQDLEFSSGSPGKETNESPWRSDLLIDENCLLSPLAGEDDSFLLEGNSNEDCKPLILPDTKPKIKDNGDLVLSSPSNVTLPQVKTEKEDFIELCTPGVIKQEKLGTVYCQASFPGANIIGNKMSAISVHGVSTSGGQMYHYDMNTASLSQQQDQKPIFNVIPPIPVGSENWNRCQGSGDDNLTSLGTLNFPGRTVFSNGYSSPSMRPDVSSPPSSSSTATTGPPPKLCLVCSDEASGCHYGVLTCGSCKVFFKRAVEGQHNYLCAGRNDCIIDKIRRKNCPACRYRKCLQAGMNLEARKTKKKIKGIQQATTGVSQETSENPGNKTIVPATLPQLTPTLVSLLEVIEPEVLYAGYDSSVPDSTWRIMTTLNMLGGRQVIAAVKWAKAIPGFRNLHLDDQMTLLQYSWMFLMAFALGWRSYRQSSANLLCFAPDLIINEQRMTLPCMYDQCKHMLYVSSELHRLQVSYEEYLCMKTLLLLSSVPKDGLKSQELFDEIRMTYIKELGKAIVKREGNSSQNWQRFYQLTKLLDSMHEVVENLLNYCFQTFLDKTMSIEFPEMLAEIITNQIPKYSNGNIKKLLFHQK
Briefly: In Vitro GR Luciferase Reporter Assay (antagonist mode, CHO-K1-GR-MMTV-Luc reporter cells). Format: cell-based. Particulars: antagonist mode, 10 nM Dexamethasone. The method in brief:
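CHO-K1-GR-MMTV-Luc cells in phenol red-free DMEM with 10% CSS, stimulated with 10 nM dexamethasone (final) and treated with 8-point 1:5 compound dilutions for about 18-24 h at 37° C. Luciferase measured by OneGlo luminescence; IC50 derived for inhibition of GR activity.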
Background: A reporter such as luciferase makes a cellular process visible.

For the molecule `CCN([C@H]1CCC2=Cc3c(cnn3-c3ccc(F)cc3)C[C@]2(C(=O)c2ncc(C3CC3)s2)C1)S(=O)(=O)c1ccn(C)n1` [Example 175, N-((4aS,6S)-4a-(5-cyclopropylthiazole-2-carbonyl)-1-(4-fluorophenyl)-4,4a,5,6,7,8-hexahydro-1H-benzo[f]indazol-6-yl)-N-ethyl-1-methyl-1H-pyrazole-3-sulfonamide], the IC50 (usually the concentration needed to halve the response being measured) is at most 100 nM.

Molecule `O=C(c1ncc(C(F)(F)F)s1)[C@]12Cc3cnn(-c4ccc(F)cc4)c3C=C1CC[C@H](N(C1CC1)S(=O)(=O)c1cnn(C(F)F)c1)C2` [Example 180, N-cyclopropyl-1-(difluoromethyl)-N-((4aS,6S)-1-(4-fluorophenyl)-4a-(5-(trifluoromethyl)thiazole-2-carbonyl)-4,4a,5,6,7,8-hexahydro-1H-benzo[f]indazol-6-yl)-1H-pyrazole-4-sulfonamide] displayed an IC50 of at most 100 nM.

`Cn1cc(S(=O)(=O)N(CC2CC2)[C@H]2CCC3=Cc4c(cnn4-c4ccc(F)cc4)C[C@]3(C(=O)c3ncc(C(F)(F)F)s3)C2)cn1` [Example 181, N-(cyclopropylmethyl)-N-((4aS,6S)-1-(4-fluorophenyl)-4a-(5-(trifluoromethyl)thiazole-2-carbonyl)-4,4a,5,6,7,8-hexahydro-1H-benzo[f]indazol-6-yl)-1-methyl-1H-pyrazole-4-sulfonamide] registered an IC50 of at most 100 nM.

Turning to `CC(C)N([C@H]1CCC2=Cc3c(cnn3-c3ccc(F)cc3)C[C@]2(C(=O)c2ncc(C3CC3)s2)C1)S(=O)(=O)c1ccn(C)n1` [Example 185, N-((4aS,6S)-4a-(5-cyclopropylthiazole-2-carbonyl)-1-(4-fluorophenyl)-4,4a,5,6,7,8-hexahydro-1H-benzo[f]indazol-6-yl)-N-isopropyl-1-methyl-1H-pyrazole-3-sulfonamide], the IC50 was at most 100 nM.

For `Cn1ccc(S(=O)(=O)N(CC2CC2)[C@H]2CCC3=Cc4c(cnn4-c4ccc(F)cc4)C[C@]3(C(=O)c3ncc(C4CC4)s3)C2)n1` [Example 187, N-(cyclopropylmethyl)-N-((4aS,6S)-4a-(5-cyclopropylthiazole-2-carbonyl)-1-(4-fluorophenyl)-4,4a,5,6,7,8-hexahydro-1H-benzo[f]indazol-6-yl)-1-methyl-1H-pyrazole-3-sulfonamide], the IC50 was at most 100 nM.

On to `Cn1cc(C(=O)N(C2CC2)[C@H]2CCC3=Cc4c(cnn4-c4ccc(F)cc4)C[C@]3(C(=O)c3ncc(C(F)(F)F)s3)C2)cn1` [Example 188, N-cyclopropyl-N-((4aS,6S)-1-(4-fluorophenyl)-4a-(5 (trifluoromethyl)thiazole-2-carbonyl)-4,4a,5,6,7,8-hexahydro-1H-benzo[f]indazol-6-yl)-1-methyl-1H-pyrazole-4-carboxamide], for which the IC50 was at most 100 nM.

In turn, `Cn1cc(S(=O)(=O)[C@H]2CCC3=Cc4c(cnn4-c4ccc(F)cc4)C[C@]3(C(=O)c3ncc(C(F)(F)F)s3)C2)cn1` [Example 190, ((4aS,6S)-1-(4-fluorophenyl)-6-((1-methyl-1H-pyrazol-4-yl)sulfonyl)-1,4,5,6,7,8-hexahydro-4aH-benzo[f]indazol-4a-yl)(5-(trifluoromethyl)thiazol-2-yl)methanone] gave an IC50 of at most 100 nM.

`CC(C)N([C@H]1CCC2=Cc3c(cnn3-c3ccc(F)cc3)C[C@]2(C(=O)c2ncc(C3CC3)s2)C1)S(=O)(=O)c1cnn(C)c1` [Example 192, N-((4aS,6S)-4a-(5-cyclopropylthiazole-2-carbonyl)-1-(4-fluorophenyl)-4,4a,5,6,7,8-hexahydro-1H-benzo[f]indazol-6-yl)-N-isopropyl-1-methyl-1H-pyrazole-4-sulfonamide] had a half-inhibitory concentration (IC50) of at most 100 nM.

In turn, `Cn1ccc(C(=O)N(C2CC2)[C@H]2CCC3=Cc4c(cnn4-c4ccc(F)cc4)C[C@]3(C(=O)c3cc(C(F)(F)F)ccn3)C2)n1` [Example 197, N-cyclopropyl-N-((4aS,6S)-1-(4-fluorophenyl)-4a-(4-(trifluoromethyl)picolinoyl)-4,4a,5,6,7,8-hexahydro-1H-benzo[f]indazol-6-yl)-1-methyl-1H-pyrazole-3-carboxamide] gave an IC50 of at most 100 nM.

Molecule `Cn1ncc(S(=O)(=O)N(CC2CC2)[C@H]2CCC3=Cc4c(cnn4-c4ccc(F)cc4)C[C@]3(C(=O)c3cc(C(F)(F)F)ccn3)C2)n1` [Example 200, N-(cyclopropylmethyl)-N-((4aS,6S)-1-(4-fluorophenyl)-4a-(4-(trifluoromethyl)picolinoyl)-4,4a,5,6,7,8-hexahydro-1H-benzo[f]indazol-6-yl)-2-methyl-2H-1,2,3-triazole-4-sulfonamide] returned an IC50 of at most 100 nM.

The molecule `O=C(c1ncc(C(F)(F)F)s1)[C@]12Cc3cnn(-c4ccc(F)cc4)c3C=C1CC[C@H](N(C1COC1)S(=O)(=O)c1ccc(F)cc1)C2` [Example 205, 4-fluoro-N-((4aS,6S)-1-(4-fluorophenyl)-4a-(5-(trifluoromethyl)thiazole-2-carbonyl)-4,4a,5,6,7,8-hexahydro-1H-benzo[f]indazol-6-yl)-N-(oxetan-3-yl)benzenesulfonamide] registered an IC50 of at most 100 nM.

For `Cn1cc(S(=O)(=O)N(C2COC2)[C@H]2CCC3=Cc4c(cnn4-c4ccc(F)cc4)C[C@]3(C(=O)c3ncc(C(F)(F)F)s3)C2)cn1` [Example 207, N-((4aS,6S)-1-(4-fluorophenyl)-4a-(5-(trifluoromethyl)thiazole-2-carbonyl)-4,4a,5,6,7,8-hexahydro-1H-benzo[f]indazol-6-yl)-1-methyl-N-(oxetan-3-yl)-1H-pyrazole-4-sulfonamide], the IC50 was at most 100 nM.

`CC(C)N([C@H]1CCC2=Cc3c(cnn3-c3ccc(F)cc3)C[C@]2(C(=O)c2ncc(C(F)(F)F)s2)C1)S(=O)(=O)c1ccc(Cl)cc1` [Example 208, 4-chloro-N-((4aS,6S)-1-(4-fluorophenyl)-4a-(5-(trifluoromethyl)thiazole-2-carbonyl)-4,4a,5,6,7,8-hexahydro-1H-benzo[f]indazol-6-yl)-N-isopropylbenzenesulfonamide] yielded an IC50 of at most 100 nM.

In turn, `CC(C)N([C@H]1CCC2=Cc3c(cnn3-c3ccc(F)cc3)C[C@]2(C(=O)c2ncc(C(F)(F)F)s2)C1)S(=O)(=O)c1ccc(F)cc1` [Example 209, 4-fluoro-N-((4aS,6S)-1-(4-fluorophenyl)-4a-(5-(trifluoromethyl)thiazole-2-carbonyl)-4,4a,5,6,7,8-hexahydro-1H-benzo[f]indazol-6-yl)-N-isopropylbenzenesulfonamide] had an IC50 of at most 100 nM.

Molecule `Cn1cc(S(=O)(=O)N(C2COC2)[C@H]2CCC3=Cc4c(cnn4-c4ccc(F)cc4)C[C@]3(C(=O)c3cc(C(F)(F)F)ccn3)C2)cn1` [Example 213, N-((4aS,6S)-1-(4-fluorophenyl)-4a-(4-(trifluoromethyl)picolinoyl)-4,4a,5,6,7,8-hexahydro-1H-benzo[f]indazol-6-yl)-1-methyl-N-(oxetan-3-yl)-1H-pyrazole-4-sulfonamide] registered an IC50 of at most 100 nM.

`Cn1cc(S(=O)(=O)N(C2COC2)[C@H]2CCC3=Cc4c(cnn4-c4ccc(F)cc4)C[C@]3(C(=O)c3ncc(C(F)(F)F)s3)C2)nn1` [Example 218, N-((4aS,6S)-1-(4-fluorophenyl)-4a-(5-(trifluoromethyl)thiazole-2-carbonyl)-4,4a,5,6,7,8-hexahydro-1H-benzo[f]indazol-6-yl)-1-methyl-N-(oxetan-3-yl)-1H-1,2,3-triazole-4-sulfonamide] returned an IC50 of at most 100 nM.

For `Cn1cc(S(=O)(=O)N(C2COC2)[C@H]2CCC3=Cc4c(cnn4-c4ccc(F)cc4)C[C@]3(C(=O)c3cc(C(F)(F)F)ccn3)C2)nn1` [Example 220, N-((4aS,6S)-1-(4-fluorophenyl)-4a-(4-(trifluoromethyl)picolinoyl)-4,4a,5,6,7,8-hexahydro-1H-benzo[f]indazol-6-yl)-1-methyl-N-(oxetan-3-yl)-1H-1,2,3-triazole-4-sulfonamide], the IC50 is at most 100 nM.

With `Cn1cc(S(=O)(=O)N(C2CCC2)[C@H]2CCC3=Cc4c(cnn4-c4ccc(F)cc4)C[C@]3(C(=O)c3cc(C(F)(F)F)ccn3)C2)cn1` [Example 235, N-cyclobutyl-N-((4aS,6S)-1-(4-fluorophenyl)-4a-(4-(trifluoromethyl)picolinoyl)-4,4a,5,6,7,8-hexahydro-1H-benzo[f]indazol-6-yl)-1-methyl-1H-pyrazole-4-sulfonamide], the IC50 was at most 100 nM.

The molecule `O=C(c1cc(C(F)(F)F)ccn1)[C@]12Cc3cnn(-c4ccc(F)cc4)c3C=C1CC[C@H](N(C1CCCC1)S(=O)(=O)c1ccc(F)cc1)C2` [Example 237, N-cyclopentyl-4-fluoro-N-((4aS,6S)-1-(4-fluorophenyl)-4a-(4-(trifluoromethyl)picolinoyl)-4,4a,5,6,7,8-hexahydro-1H-benzo[f]indazol-6-yl)benzenesulfonamide] showed an IC50 of at most 100 nM.
